Publication PMC10213809 (Cell Reports Medicine, 2023)
“Also recorded” adds a separate entry of the source.

Columns and labels:
[1] = system: WNV; assay type: cell-based, West Nile virus; conditions: for antiviral activity (inhibition) against WNV, primary screen: HFF-1, moderate antiviral activity; for inhibition of WNV, primary screen / infectivity against WNV at the highest non-toxic dose: HFF-1; for infectivity against WNV at the highest non-toxic dose: 100 μg/mL
[2] = system: RSV; assay type: cell-based, respiratory syncytial virus
[3] = system: CHIKV; assay type: cell-based, Chikungunya virus; conditions: read-out: IC50, antiviral activity against CHIKV; human fibroblasts (HFF-1), eight-dose response
[4] = system: CHIKV; test: Viral-mediated cytopathic effect / cell death in infected HFF-1 cells; assay type: cell-based, Chikungunya virus; conditions: HFF-1, 48 hpi, effective concentration
[5] = system: CHIKV; assay type: cell-based, Chikungunya virus; conditions: for inhibition of CHIKV, primary screen: HFF-1
[6] = system: TBK-IRF3 signaling cascade; assay type: cell-based, human; conditions: HFF-1, pretreatment, uninfected cells
[7] = system: arboviruses (CHIKV, WNV, ZIKV); test: qRT-PCR of viral genome replication in drug-treated fibroblasts at 48 hpi; assay type: cell-based
[8] = system: ZIKV; assay type: cell-based, Zika virus; conditions: HFF-1; for infectivity against ZIKV at the highest non-toxic dose: 100 μg/mL
[9] = system: WNV; assay type: cell-based, West Nile virus
[10] = system: CHIKV; assay type: cell-based, Chikungunya virus
[11] = system: CHIKV (strain 181/25); test: Histopathology and IHC of CHIKV-infected mouse footpad; assay type: in vivo
[12] = system: CHIKV (strain 181/25); test: CHIKV arthritis mouse model
[13] = system: CHIKV; test: RNA sequencing of drug-treated CHIKV-infected HFF-1 cells; assay type: cell-based, Chikungunya virus; conditions: for viral genome reads of the total reads: RNA sequencing
[14] = system: HFF-1 cells; test: Intracellular ATP level; assay type: cell-based, human; conditions: CHIKV-infected HFF-1, 48 hpi
[15] = system: HFF-1 cells; test: NAD/NADH-Glo assay, intracellular NADH; assay type: cell-based, human; conditions: HFF-1, 48 hpi
[16] = system: STING-IRF3 and STING-NF-κB pathways; assay type: cell-based, human; conditions: HFF-1, 2 h post-stimulation
[17] = system: CHIKV; assay type: cell-based, Chikungunya virus; remark: listed apart in the source

In the case of `Nc1ncnc2c1ncn2[C@@H]1O[C@@H]2COP(=O)(O)O[C@H]3[C@@H](O)[C@H](n4cnc5c(N)ncnc54)O[C@@H]3COP(=O)(O)O[C@H]2[C@H]1O` [c-di-AMP], the “antiviral activity (inhibition) against WNV, primary screen” value (shortened to “antiviral activity (inhibition)”) [1] is reported as greater than 50%.

For `O=c1cnn([C@@H]2O[C@H](CO)[C@@H](O)[C@H]2O)c(=O)[nH]1` [6-azauridine, 6-Azauridine], the “inhibition of RSV infection” value [2] was “efficient inhibition”.

In the case of `CCn1nc(C)cc1C(=O)Nc1nc2cc(C(N)=O)cc(OC)c2n1C/C=C/Cn1c(NC(=O)c2cc(C)nn2CC)nc2cc(C(N)=O)cc(OCCCN3CCOCC3)c21` [diABZI], the IC50 [3] is reported as 0.0101 µM, the “viral-mediated cytopathic effect (CPE)” value [4] is reported as “prevented CPE” and the “antiviral activity, post-treatment of CHIKV-infected cells” value [5] is reported as “potent antiviral activity”. The “phosphorylation of IRF3 (western blot)” value [6] was “induced phosphorylation of IRF3” and the “viral genome replication (qRT-PCR)” value [7] was “significantly reduced”.

`CC(=O)N[C@@H]1[C@@H](O[C@H](C)C(=O)N[C@@H](C)C(=O)N[C@H](CCC(=O)O)C(N)=O)[C@H](O)[C@@H](CO)O[C@H]1O` [MDP] was tested, and the “inhibition of CHIKV, primary screen” value [5] was “not against CHIKV”, the “inhibition of ZIKV, primary screen” value [8] was “potent inhibition” and the “inhibition of WNV, primary screen” value [1] was “potent inhibition”.

`CCCCCCCCCCCCCCCC(=O)OCC(CSC[C@H](N)C(=O)N[C@@H](CO)C(=O)N[C@@H](CCCCN)C(=O)N[C@@H](CCCCN)C(=O)N[C@@H](CCCCN)C(=O)N[C@@H](CCCCN)C(=O)Nc1ccc(Cn2c(O)nc3c(N)nc(NCCCC)nc32)cc1)OC(=O)CCCCCCCCCCCCCCC` (some centres unmarked) [Adilipoline(CL413)] was tested, and the “effect on viral replication, primary screen (Figure 1C)” value [5] was “enhanced viral replication”.

For `Nc1nc2c(ncn2[C@@H]2O[C@@H]3COP(=O)(O)O[C@H]4[C@@H](O)[C@H](n5cnc6c(N)ncnc65)O[C@@H]4COP(=O)(O)O[C@H]3[C@H]2O)c(=O)[nH]1` [3'3'-cGAMP, 3′,3′-cGAMP], the “viral-mediated cytopathic effect (CPE)” value [4] was “prevented CPE”, the “infectivity against CHIKV at the highest non-toxic dose” value [5] was “below-detectable infectivity” and the “phosphorylation of IRF3 (western blot)” value [6] was “induced phosphorylation of IRF3”. The “infectivity against ZIKV at the highest non-toxic dose” value [8] was “below-detectable infectivity” and the “infectivity against WNV at the highest non-toxic dose” value [1] was “below-detectable infectivity”.

With `CCC(CC)COC(=O)[C@H](C)N[P@](=O)(OC[C@H]1O[C@@](C#N)(c2ccc3c(N)ncnn23)[C@H](O)[C@@H]1O)Oc1ccccc1` [Remdesivir] the “antiviral activity against WNV” value [9] was “no effective antiviral activity; also recorded: not active”, the “antiviral activity against CHIKV” value [10] was “no effective antiviral activity; also recorded: not active” and the “inhibition of RSV infection” value [2] was “efficient inhibition”.

With `Nc1ncnc2c1ncn2[C@@H]1O[C@@H]2COP(=O)(O)O[C@H]3[C@@H](O)[C@H](n4cnc5c(=O)[nH]cnc54)O[C@@H]3COP(=O)(O)O[C@H]2[C@H]1O` [cAIMP] the “inflammatory cellular infiltration, therapeutic” value ([11]; cAIMP 10 mg/kg i.p. at 6 or 12 hpi, left footpad) was “reducing”, the “pathological changes and left-rear footpad swelling (histopathology)” value ([11]; cAIMP pretreatment, 7 dpi) was “prevented” and the “viral-mediated cytopathic effect (CPE)” value [4] was “prevented CPE”. For the same molecule, the “volume of footpad swelling, chronic long-term follow-up” value ([12]; 14-month-old mice, cAIMP pretreatment, up to 2 months post-infection) was “significantly reduced”, the “virus replication, chronic long-term follow-up” value ([12]; 14-month-old mice, cAIMP pretreatment, up to 2 months post-infection (59 dpi)) was “significantly reduced” and the “inflammatory gene expression, therapeutic” value ([12]; mouse, cAIMP 10 mg/kg i.p. at 6 or 12 hpi, left footpad) was “reducing”. The “viral replication, therapeutic” value ([12]; mouse, cAIMP 10 mg/kg i.p. single dose at 6 or 12 hpi) was “reducing”, the “footpad swelling, therapeutic” value ([12]; mouse, cAIMP 10 mg/kg i.p. single dose at 6 or 12 hpi, up to 21 dpi) was “protected the animals from significant footpad swelling” and the “CHIKV-mediated footpad swelling, prophylactic” value ([12]; mouse, cAIMP 10 mg/kg i.p. single dose at day -1, observed 7 days) was “significantly prevented”. The body weight changes ([12]; mouse, cAIMP at 6 or 12 h post-CHIKV infection) was “No significant body weight changes”, the “reduction in viral genome replication in left-rear footpad (qRT-PCR)” value ([12]; mouse, cAIMP pretreatment 10 mg/kg i.p., day 3) was 2 log and the “expression of inflammatory genes Ccl2, Il-6 and Il-10 in left footpad” value ([12]; mouse, cAIMP-pretreated, 7 dpi) was “significant downregulation”. For the same molecule, the “antiviral activity, post-treatment of CHIKV-infected cells” value [5] was “potent antiviral activity”, the “infectivity against CHIKV at the highest non-toxic dose” value [5] was “below-detectable infectivity” and the “phosphorylation of IRF3 (western blot)” value [6] was “induced phosphorylation of IRF3”. For the same molecule, the “infectivity against ZIKV at the highest non-toxic dose” value [8] was “below-detectable infectivity”, the “HEATR9 expression induced by CHIKV” value ([13]; CHIKV-infected HFF-1) was “reversed the induction” and the “reduction of viral gene expression compared with untreated infected cells” value ([13]; CHIKV-infected HFF-1, 24 hpi) was “about 880 fold”. For the same molecule, the “viral genome reads of the total reads” value ([13]; CHIKV-infected HFF-1, 24 hpi) was 0.1%, the “infectivity against WNV at the highest non-toxic dose” value [1] was “below-detectable infectivity” and the “viral genome replication (qRT-PCR)” value [7] was “significantly reduced”. For the same molecule, the “intracellular ATP” value [14] was “prevented ATP depletion” and the “nicotinamide adenine dinucleotide (NADH) levels” value [15] was “increased”.

In the case of `Nc1nc2c(ncn2[C@@H]2O[C@@H]3COP(=O)(O)O[C@H]4[C@@H](O)[C@H](n5cnc6c(N)ncnc65)O[C@@H]4COP(=O)(O)O[C@@H]2[C@@H]3O)c(=O)[nH]1` [2'3'-cGAMP, 2′,3′-cGAMP], the “viral-mediated cytopathic effect (CPE)” value [4] is reported as “prevented CPE”, the “infectivity against CHIKV at the highest non-toxic dose” value [5] is reported as “below-detectable infectivity” and the “phosphorylation of IRF3 (western blot)” value [6] is reported as “induced phosphorylation of IRF3”. For the same molecule, the “infectivity against ZIKV at the highest non-toxic dose” value [8] was “below-detectable infectivity”, the “infectivity against WNV at the highest non-toxic dose” value [1] was “below-detectable infectivity” and the “viral genome replication (qRT-PCR)” value [7] was “significantly reduced”.

`CC(C)Cn1cnc2c(N)nc3ccccc3c21` [Imiquimod] was tested, and the “inhibition of CHIKV, primary screen” value [5] was “not against CHIKV”, the “inhibition of ZIKV, primary screen” value [8] was “potent inhibition” and the “inhibition of WNV, primary screen” value [1] was “potent inhibition”. The “antiviral activity (inhibition)” value [1] was greater than 50% and the “viral genome replication (qRT-PCR)” value [7] was “significantly reduced”.

For `Nc1nc2c(ncn2[C@@H]2O[C@@H]3COP(=O)(O)O[C@H]4[C@@H](O)[C@H](n5cnc6c(=O)[nH]c(N)nc65)O[C@@H]4COP(=O)(O)O[C@H]3[C@H]2O)c(=O)[nH]1` [c-di-GMP], the “effect on viral replication, primary screen (Figure 1C)” value [5] was “enhanced viral replication”, the “inhibition of CHIKV, primary screen” value [5] was “not against CHIKV” and the “inhibition of ZIKV, primary screen” value [8] was “potent inhibition”. The “inhibition of WNV, primary screen” value [1] was “potent inhibition”.

Scleroglucan was tested, and the “phosphorylation of IRF3 (Ser386)” value [16] was “only a few cells have a cytoplasmic form of phospho-IRF3”, the “phosphorylation of STING (Ser366)” value [16] was “did not have detectable levels” and the “viral-mediated cytopathic effect (CPE)” value [4] was “prevented CPE”. For the same molecule, the “phosphorylation of IRF3 (western blot)” value [6] was “only the basal level”, the “viral genome reads of the total reads” value ([13]; CHIKV-infected HFF-1, 24 hpi) was 63% and the “CHIKV productive infection / replication in PSC-CMs” value [17] was “inhibited; also recorded: moderately reducing”. The “antiviral activity (inhibition)” value [1] was greater than 50% and the “viral genome replication (qRT-PCR)” value [7] was “significantly reduced”.
